Experiments:
[1] = target: T1, human SPR (Homo sapiens (Human), UniProt P35270); assay: Evaluation Example 1: Measurement of human SPR inhibitory activity (sepiapterin absorbance at 420 nm); format: biochemical; settings: 240 minutes at room temperature
Protocol: Human SPR was prepared as described below. The full-length human SPR (1-261) cDNA was purchased from Eurofins Genomics as an artificially synthesized plasmid containing a DNA sequence optimized for the E. coli expression system so that the sequence of the expressed protein after transcription and translation matches the sequence described in UniprotKB (P35270).
Linearized insert and vector were prepared by PCR using primers designed for amplification of human SPR cDNA and primers designed to contain the thrombin recognition sequence of pET28a (Novagen) and a polyhistidine tag. Cloning was performed using In-Fusion (registered trademark) HD Cloning Kit (TaKaRa) to thereby construct a human SPR expression plasmid. The resultant human SPR expression plasmid was transformed into BL21 (DE3) competent cells (INVITROGEN).
The cells were inoculated into LB medium (1% triptone, 0.5% yeast extract, 1% sodium chloride) containing […] of kanamycin, and then precultured at 37° C. overnight. The precultured cells were inoculated into TB medium (1.2% triptone, 2.4% yeast extract, 9.4% dipotassium hydrogen phosphate, 2.2% potassium dihydrogen phosphate, 0.8% glycerin) containing […] of kanamycin, and the cultured at 37° C., to thereby induce SPR expression with 0.5 mM IPTG for four hours. After the induction, the cells were collected by centrifugation at 6,000 G for 30 minutes and washed with PBS, and the washing was discarded. The washed cells were suspended in buffer solution A (20 mM MES, pH 6.5, 100 mM sodium chloride, 1 mM DTT, 5 mM imidazole). Subsequently, the cell suspension was subjected to ultrasonic treatment to thereby homogenize the cells. The cell homogenate was clarified by centrifugation at 30,000 G for 60 minutes and then filtered with a […]. The filtrate was allowed to pass through HisTrapFF 5 mL column (GE Healthcare). The resin was washed with buffer A, and then gradient elution was performed with buffer B (20 mM MES, pH 6.5, 100 mM sodium chloride, 1 mM DTT, 500 mM imidazole). Thrombin was added to a fraction containing the SPR protein, and the mixture was dialyzed in buffer A overnight, to thereby cleave the tag. After removal of the thrombin by with Benzamidine Sepharose 4 FF (GE Healthcare), the resultant product was allowed to pass through the HisTrapFF 5 mL column, to thereby remove the tag, followed by concentration with Amicon Ultra 10,000 NMWL (Merck Millipore). The concentrate was purified by gel filtration using HiLoad 16/60 Superdex 75 pg (GE Healthcare) equilibrated with buffer C (20 mM MES, pH 6.5, 100 mM sodium chloride, 1 mM DTT). The fraction containing SPR protein was concentrated and then cryopreserved at −80° C.
Human SPR inhibitory activity was measured by using a 384-well low adsorption clear plate (Greiner) with buffer D containing 100 mM Tris-HCl (pH 7.5) (Thermo Fisher Scientific) and 0.01% bovine serum albumin (Sigma). A compound was diluted with DMSO to a concentration of 1 mM, and a 1 μL aliquot of the preparation was diluted with 250 μL of buffer D. The thus-diluted compound was dispensed into the 384-well plate at […]. Thereafter, human SPR was diluted with buffer D to 200 ng/mL and then dispensed into the 384-well plate at 20 μL/well. Subsequently, 40 μL of ultrapure water containing 120 μM Sepiapterin (WuXi AppTec) and 120 μM NADPH (Nacalai) was added to each well, and mixed with a vortex mixer, to thereby initiate the reaction. The reaction mixture was incubated at room temperature for 240 minutes, and the reaction was terminated by addition of 10 μL of ultrapure water containing 2% formic acid (Nacalai). In order to determine the amount of sepiapterin after termination of the reaction, the absorbance at 420 nm was measured by applying the 384-well plate to EnSpire multimode plate reader (Perkin Elmer). The percent inhibition (%) of human SPR by the test compound was calculated by the following formula. […]

[2] = target: T1, human SPR; assay: Evaluation Example 2: Measurement of human SPR inhibitory activity (seven concentrations, sepiapterin absorbance at 420 nm); format: biochemical; settings: Evaluation Example 2, seven concentrations 0.14 nM to 100 nM, 240 minutes at room temperature, read-out: IC50
Procedure, shortened: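 Reactions ran 240 min at room temperature in 100 mM Tris-HCl pH 7.5 with 0.01% BSA. They contained tag-cleaved, E. coli-expressed full-length human SPR (diluted to 150 ng/mL), seven compound concentrations from 0.14 to 100 nM, and sepiapterin/NADPH added as a 120 μM/160 μM solution. Inhibition was calculated from sepiapterin absorbance at 420 nm.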

T1 sequence (P35270 whole entry): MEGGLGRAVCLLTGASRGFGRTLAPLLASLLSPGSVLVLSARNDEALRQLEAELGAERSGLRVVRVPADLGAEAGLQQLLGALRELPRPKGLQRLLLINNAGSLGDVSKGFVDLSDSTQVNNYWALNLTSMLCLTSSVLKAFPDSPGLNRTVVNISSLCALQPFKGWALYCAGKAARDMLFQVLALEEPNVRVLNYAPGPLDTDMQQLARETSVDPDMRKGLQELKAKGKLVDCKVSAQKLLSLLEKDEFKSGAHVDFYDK

Compound | IC50 [1] [nM] | IC50 [2] [nM]
CC(C)(C)Cn1c(=O)c(C(=O)NC2CC2)c(O)n2nc(C(N)=O)cc12 [Synthesis Example 33, N6-Cyclopropyl-7-hydroxy-4-neopentyl-5-oxo-4,5-dihydropyrazolo[1,5-a]pyrimidine-2,6-dicarboxamide] | < 1000 | 0.65
CC(C)Cn1c(=O)c(C(=O)NC2CC2)c(O)n2ncc(/C=C/C(=O)N3CCOCC3)c12 [Synthesis Example 10, (E)-N-Cyclopropyl-7-hydroxy-4-isobutyl-3-(3-morpholino-3-oxoprop-1-en-1-yl)-5-oxo-4,5-dihydropyrazolo[1,5-a]pyrimidine-6-carboxamide] | < 1000 | 0.68
CC(C)(C)Cn1c(=O)c(C(=O)NC2CC2)c(O)n2nc(-c3cccnc3N)cc12 [Synthesis Example 14, 2-(2-Aminopyridin-3-yl)-N-cyclopropyl-7-hydroxy-4-neopentyl-5-oxo-4,5-dihydropyrazolo[1,5-a]pyrimidine-6-carboxamide] | < 1000 | 1.19
CC(C)(C)Cn1c(=O)c(C(=O)NC2CC2)c(O)n2nc(NC(N)=O)cc12 [Synthesis Example 32, N-Cyclopropyl-7-hydroxy-4-neopentyl-5-oxo-2-ureido-4,5-dihydropyrazolo[1,5-a]pyrimidine-6-carboxamide] | < 1000 | 3.08
CC(C)(C)Cn1c(=O)c(C(=O)NC2CC2)c(O)n2nc(N)cc12 [Synthesis Example 18, 2-Amino-N-cyclopropyl-7-hydroxy-4-neopentyl-5-oxo-4,5-dihydropyrazolo[1,5-a]pyrimidine-6-carboxamide] | < 1000 | 0.89
CC(C)(C)Cn1c(=O)c(C(=O)NC2CC2)c(O)n2nc(Nc3ccncn3)cc12 [Synthesis Example 12, N-Cyclopropyl-7-hydroxy-4-neopentyl-5-oxo-2-(pyrimidin-4-ylamino)-4,5-dihydropyrazolo[1,5-a]pyrimidine-6-carboxamide] | < 1000 | 1.41
COc1cnc(Nc2cc3n(CC(C)(C)C)c(=O)c(C(=O)NC4CC4)c(O)n3n2)cn1 [Synthesis Example 16, N-Cyclopropyl-7-hydroxy-2-((5-methoxypyrazin-2-yl)amino)-4-neopentyl-5-oxo-4,5-dihydropyrazolo[1,5-a]pyrimidine-6-carboxamide] | < 1000 | 1.96
COc1cncc(Nc2cc3n(CC(C)(C)C)c(=O)c(C(=O)NC4CC4)c(O)n3n2)n1 [Synthesis Example 17, N-Cyclopropyl-7-hydroxy-2-((6-methoxypyrazin-2-yl)amino)-4-neopentyl-5-oxo-4,5-dihydropyrazolo[1,5-a]pyrimidine-6-carboxamide] | < 1000 | 0.76
CC(C)(C)Cn1c(=O)c(C(=O)NC2CC2)c(O)n2nc(Nc3cnc(C(N)=O)cn3)cc12 [Synthesis Example 21, 2-((5-Carbamoylpyrazin-2-yl)amino)-N-cyclopropyl-7-hydroxy-4-neopentyl-5-oxo-4,5-dihydropyrazolo[1,5-a]pyrimidine-6-carboxamide] | < 1000 | 0.96
CC(C)Cn1c(=O)c(C(=O)NC2CC2)c(O)n2nc(Nc3cnccn3)cc12 [Synthesis Example 23, N-Cyclopropyl-7-hydroxy-4-isobutyl-5-oxo-2-(pyrazin-2-ylamino)-4,5-dihydropyrazolo[1,5-a]pyrimidine-6-carboxamide] | < 1000 | 1.91
CC(C)(C)Cn1c(=O)c(C(=O)NC2CC2)c(O)n2ncc(/C=C/C(=O)N3CCOCC3)c12 [Synthesis Example 169, (E)-N-Cyclopropyl-7-hydroxy-3-(3-morpholino-3-oxoprop-1-en-1-yl)-4-neopentyl-5-oxo-4,5-dihydropyrazolo[1,5-a]pyrimidine-6-carboxamide] | < 1000 | –
CC(C)(C)Cn1c(=O)c(C(=O)NC2CCC2)c(O)n2nc(Br)cc12 [Synthesis Example 25, 2-Bromo-N-cyclobutyl-7-hydroxy-4-neopentyl-5-oxo-4,5-dihydropyrazolo[1,5-a]pyrimidine-6-carboxamide] | < 1000 | –
CC(C)(C)Cn1c(=O)c(C(=O)NC2CCC2)c(O)n2nc(Nc3cnccn3)cc12 [Synthesis Example 26, N-Cyclobutyl-7-hydroxy-4-neopentyl-5-oxo-2-(pyrazin-2-ylamino)-4,5-dihydropyrazolo[1,5-a]pyrimidine-6-carboxamide] | < 1000 | –
CC(C)(C)Cn1c(=O)c(C(=O)NC2CC2)c(O)n2nc(Nc3cnc(C(F)(F)F)cn3)cc12 [Synthesis Example 15, N-Cyclopropyl-7-hydroxy-4-neopentyl-5-oxo-2-((5-(trifluoromethyl)pyrazin-2-yl)amino)-4,5-dihydropyrazolo[1,5-a]pyrimidine-6-carboxamide] | < 1000 | 1.61
CC1(Cn2c(=O)c(C(=O)NC3CC3)c(O)n3nc(Br)cc23)CCOCC1 [Synthesis Example 27, 2-Bromo-N-cyclopropyl-7-hydroxy-4-((4-methyltetrahydro-2H-pyran-4-yl)methyl)-5-oxo-4,5-dihydropyrazolo[1,5-a]pyrimidine-6-carboxamide] | < 1000 | –
CC(C)Cn1c(=O)c(C(=O)NC2CC2)c(O)n2nc(-c3cccnc3N)cc12 [Synthesis Example 24, 2-(2-Aminopyridin-3-yl)-N-cyclopropyl-7-hydroxy-4-isobutyl-5-oxo-4,5-dihydropyrazolo[1,5-a]pyrimidine-6-carboxamide] | < 1000 | –
CC(C)Cn1c(=O)c(C(=O)NC2CC2)c(O)n2ncc(Br)c12 [Synthesis Example 104, 3-Bromo-N-cyclopropyl-7-hydroxy-4-isobutyl-5-oxo-4,5-dihydropyrazolo[1,5-a]pyrimidine-6-carboxamide] | < 1000 | –
COc1ccnc(Nc2cc3n(CC(C)(C)C)c(=O)c(C(=O)NC4CC4)c(O)n3n2)c1 [Synthesis Example 195, N-Cyclopropyl-7-hydroxy-2-((4-methoxypyridin-2-yl)amino)-4-neopentyl-5-oxo-4,5-dihydropyrazolo[1,5-a]pyrimidine-6-carboxamide] | < 1000 | –
CC(C)(C)Cn1c(=O)c(C(=O)NC2CC2)c(O)n2nc(Nc3cnccn3)cc12 [Synthesis Example 13, N-Cyclopropyl-7-hydroxy-4-neopentyl-5-oxo-2-(pyrazin-2-ylamino)-4,5-dihydropyrazolo[1,5-a]pyrimidine-6-carboxamide] | < 1000 | 1.43
CC1(Cn2c(=O)c(C(=O)NC3CCC3)c(O)n3nc(Br)cc23)CCOCC1 [Synthesis Example 30, 2-Bromo-N-cyclobutyl-7-hydroxy-4-((4-methyltetrahydro-2H-pyran-4-yl)methyl)-5-oxo-4,5-dihydropyrazolo[1,5-a]pyrimidine-6-carboxamide] | < 1000 | –
